Test results taken from patent US7964628B2, “Fibrinogen receptor antagonists and their use” (Piramal Life Sciences Limited, priority 2003, dated 2011).
Where a name gives a salt, the structure may show the parent alone.

| Structure (SMILES) | melting point |
| --- | --- |
| N=C(N)c1ccc2c(c1)CN(CC(=O)c1ccc(OCC(=O)O)cc1O)C2=O (as salt: trifluoroacetate) [Example 44, (4-{2-[5-Carbamimidoyl-1-oxo-1,3-dihydro-isoindol-2-yl]-acetyl}-3-hydroxy-phenoxy)-acetic acid] | 262 °C (dec.) |
| CCOC(=O)COc1ccc(C(=O)CN2Cc3cc(C(=N)N)ccc3C2=O)c(OCC(=O)OCC)c1 (as salt: salt) (hydrate or solvate) [Example 47, (4-{2-[5-Carbamimidoyl-1-oxo-1,3-dihydro-isoindol-2-yl]-acetyl}-3-ethoxycarbonylmethoxy-phenoxy)-acetic acid ethyl ester] | 186 to 188 °C |
| C=CCOc1cc(OCC(=O)OCC)ccc1C(=O)CN1Cc2cc(C(=N)NO)ccc2C1=O (hydrate or solvate) [Example 83, (3-Allyloxy-4-{2-[5-(N-hydroxycarbamimidoyl)-1-oxo-1,3-dihydro-isoindol-2-yl]-acetyl}-phenoxy)-acetic acid ethyl ester] | 182 to 183 °C |
| CCOC(=O)C(CCNC(=O)OCc1ccccc1)Oc1ccc(C(=O)CN2Cc3cc(C(=N)N)ccc3C2=O)cc1 (stereo not drawn) (as salt: salt) [Example 27, 4-Benzyloxycarbonylamino-2-(4-{2-[5-carbamimidoyl-1-oxo-1,3-dihydro-isoindol-2-yl]-acetyl}-phenoxy)-butyric acid ethyl ester] | 164 to 165 °C |
| COC(=O)CSc1ccc(C(=O)CN2Cc3cc(C(=N)NO)ccc3C2=O)cc1 [Example 29, (4-{2-[5-(N-Hydroxycarbamimidoyl)-1-oxo-1,3-dihydro-isoindol-2-yl]-acetyl}-phenylsulfanyl)-acetic acid methyl ester] | 193 to 194 °C |
| CCCc1c(OCC(=O)O)ccc(C(=O)CN2Cc3cc(C(=N)N)ccc3C2=O)c1O (as salt: trifluoroacetic acid salt) [Example 60, (4-{2-[5-Carbamimidoyl-1-oxo-1,3-dihydro-isoindol-2-yl]-acetyl}-3-hydroxy-2-propyl-phenoxy)-acetic acid] | 222 to 223 °C |
| CCOC(=O)COc1ccc(C(=O)CN2Cc3cc(C(=N)NO)ccc3C2=O)c(OCC)c1 [Example 75, (3-Ethoxy-4-{2-[5-(N-hydroxycarbamimidoyl)-1-oxo-1,3-dihydro-isoindol-2-yl]-acetyl}-phenoxy)-acetic acid ethyl ester] | 192 to 194 °C |
| CCOC(=O)COc1ccc(C(=O)CN2Cc3cc(C(=N)NO)ccc3C2=O)cc1Cl [Example 32, (2-Chloro-4-{2-[5-(N-hydroxycarbamimidoyl)-1-oxo-1,3-dihydro-isoindol-2-yl]-acetyl}-phenoxy)-acetic acid ethyl ester] | 201 to 202 °C |
| CCOC(=O)COc1ccc(O)c(C(=O)CN2Cc3cc(C(=N)NO)ccc3C2=O)c1 [Example 61, (4-Hydroxy-3-{2-[5-(N-hydroxycarbamimidoyl)-1-oxo-1,3-dihydro-isoindol-2-yl]-acetyl}-phenoxy)-acetic acid ethyl ester] | 158 to 159 °C |
| CCOC(=O)C(CCNC(=O)OCc1ccccc1)Oc1ccc(C(=O)CN2Cc3cc(C(=N)NO)ccc3C2=O)cc1 (stereo not drawn) [Example 28, 4-Benzyloxycarbonylamino-2-(4-{2-[5-(N-hydroxycarbamimidoyl)-1-oxo-1,3-dihydro-isoindol-2-yl]-acetyl}-phenoxy)-butyric acid ethyl ester] | 174 to 175 °C |
| CCCOc1cc(OCC(=O)OCC)ccc1C(=O)CN1Cc2cc(C(=N)NO)ccc2C1=O (hydrate or solvate) [Example 46, (4-{2-[5-(N-Hydroxycarbamimidoyl)-1-oxo-1,3-dihydro-isoindol-2-yl]-acetyl}-3-propoxy-phenoxy)-acetic acid ethyl ester] | 175 to 177 °C |
| CC(C)OC(=O)COc1ccc(C(=O)CN2Cc3cc(C(=N)N)ccc3C2=O)cc1 (hydrate or solvate) [Example 5, (4-{2-[5-Carbamimidoyl-1-oxo-1,3-dihydro-isoindol-2-yl]-acetyl}-phenoxy)-acetic acid isopropyl ester] | 162 °C |
